Test system: Eimeria tenella
Test: Protective immunity against Eimeria tenella challenge after in ovo treatment and live coccidiosis vaccine
Type: in vivo, Broiler chicks
Design: key to Mean Cecal Score: cecal lesion score per Johnson & Reid (1970); Mean Gain: unit not given here
Details: challenged at 28 days
Source text: A laboratory strain of Eimeria tenella was used as live coccidiosis vaccine (1000 oocysts per bird), and was given by individual oral gavage to day-old chicks. At 28 days of age, each bird was challenged by inoculation of virulent cecal coccidia (a field isolate of E. tenella with a challenge dose of 100,000 oocysts per bird) or kept as unchallenged controls. Six days post-challenge, birds were euthanized for necropsy and lesion score (see, e.g., Johnson & Reid, 1970, Exper. Parasitol. 28:30-36). Weight gains were calculated. […] Partial protection is not uncommon with coccidiosis vaccines administered in this way in short term challenge experiments. […]

[1] = E10 (10 IU) in ovo, Table 2 second set
[2] = E10 (10 IU) in ovo, Table 2 third set
[3] = E20 (20 IU) in ovo, Table 2 second set
[4] = E20 (20 IU) in ovo, Table 2 third set
[5] = E30 (30 IU) in ovo, Table 2 second set
[6] = E30 (30 IU) in ovo, Table 2 third set

vitamin E was tested, and the “Mean Cecal Score” value [1] was 1.53, the “Mean Gain” value [1] was 361 and the “Mean Cecal Score” value [2] was 1.46. For the same substance, the “Mean Gain” value [2] was 438, the “Mean Cecal Score” value [3] was 1.73 and the “Mean Gain” value [3] was 357. The “Mean Cecal Score” value [4] was 1.21, the “Mean Gain” value [4] was 322 and the “Mean Cecal Score” value [5] was 1.55. The “Mean Gain” value [5] was 388, the “Mean Cecal Score” value [6] was 0.5 and the “Mean Gain” value [6] was 454.

Reference: US7879342B2, “Vaccine adjuvant and making and using the same” (Univ. of Georgia Research Foundation, Inc., priority 2004, dated 2011)
